Measurements as given in paper PMC11843613, “Further Optimization of the mGlu1 PAM VU6024578/BI02982816: Discovery and Characterization of VU6033685” (ACS Chemical Neuroscience, 2025).

Experiments:
[1] = Single IV bolus PK and tolerability in male beagle dogs; type: in vivo; settings: male beagle dog, 0.5 mg/kg IV bolus
[2] = Plasma protein binding (c); type: in vitro ADME, c (presumably cynomolgus); settings: cynomolgus monkey, pH 7.4, read-out: fu plasma (c)
Experimental: page 13: at half log concentrations in DMSO were further diluted in assay buffer. The compounds or DMSO vehicle were added to cells and incubated for 2.5 min and an EC20 concentration of glutamate was added and incubated for 1 min. An ECmax concentration of glutamate was also added to cells that were incubated with DMSO vehicle to accurately calculate the EC20 calcium response. Data were normalized by subtracting the basal florescent peak before EC20 agonist addition from the maximal peak elicited by EC20 agonist and PAMs. Using GraphPad Prism 5.0, the concentration response curves were generated and the potencies of the mGlu1 PAMs were determined. DMPK Methods Plasma protein binding: The protein binding of each compound was determined in plasma via equilibrium dialysis employing RED Plates (ThermoFisher Scientific, Rochester, NY). Plasma was added to the 96 well plate containing test compound and mixed thoroughly for a final concentration of 5 µM. Subsequently, an aliquot of the plasma-compound mixture was transferred to the cis chamber (red) of the RED plate, with an phosphate buffer (25 mM, pH 7.4) in the trans chamber. The RED plate was sealed and incubated for 4 hours at 37°C with shaking. […] The in vitro half-life (T 1/2, min, Eq. 1), intrinsic clearance (CLint, mL/min/kg, Eq. 2) and subsequent predicted hepatic clearance (CLhep, mL/min/kg, Eq. 3) was determined S13

striatal DA release = experiment: Electrically evoked striatal DA release in brain slices (fast scanning cyclic voltammetry); settings: 10 μM PAM + 10 μM DHPG, mouse slices, 1 μM DHβE present
Experimental: into the home cage. The arena is then cleaned with 70% ethanol in between animals. The day of the test the animals are habituated to the dosing room for 2 hours. The animals were administered VU6024578 (1-10 mg/kg p.o.) or vehicle (10% Tween 80) and were placed back into their homecage for 60 min. The animals were then injected with MK-801 (0.075 mg/kg 1 ml/kg s.c.) and placed back in the homecage for 30 min. The animals are then placed into the arena with two identical familiar objects for ten minutes and then placed back into the home cage. The animals are then placed back into the arena with one of the familiar objects replaced with a novel object at 120 min after the familiar object exposure. The activity of the animals are recorded and the time spent exploring each of the objects is scored by a blinded observer. Recognition index is determined by subtracting […] divided by total time spent exploring.
Brain Slice Preparation and Fast Scanning Cyclic Voltammetry: […]
Electrically-evoked dopamine overflow was monitored with carbon fiber electrodes as previously reported (Foster et al. 2014). […]

Cc1nc(C2CC2)ccc1CNC(=O)c1cc(-n2cccn2)ccc1Cl [compound 8]
adverse events in dogs [1]: all dogs displayed dizziness, salivation, and uncoordinated movements | clearance ([1]; plasma, read-out: CLp (dog)): 10 mL/min/kg | Vd ([1]; plasma, read-out: Vss (dog)): 4.6 L/kg | half-life ([1]; plasma, read-out: t1/2 (dog) (converted)): 6.5 h | fraction unbound at 4 h, 5 µM [2]: 0.46 | effect on striatal DA release when coapplied with subthreshold DHPG (striatal DA release): robust inhibition of DA release
